Source: patent publication US5215520A, “Method for delivering an active substance topically or percutaneously” (Centre Internationale de Recherches Dermatologiques …, priority 1991, dated 1993)

Legend:
[1] = rat, in vivo
Experimental: In these experiments, the levels of Thr-Lys-Pro peptide in urine following application of the peptide to the skin were measured.
Electrodes (105, 106) (Ag/AgC1) were tightly fitted to the stoppers (103, 104) and became enclosed within the chambers (101 and 102) when the chambers were closed by replacing the stoppers. The distance between the bottom of the electrode after the stopper has been replaced and the bottom of the chamber is 0.3 cm. The skin surface contact area was 3.80 cm^2 and the axes of the chambers were 42 mm apart. The electrodes were connected to a source of electric current (E). To enable the various experiments to be performed, chambers (101 and 102) were fixed to the skin (S) using a cyanoacrylate glue. […]
After 3 hours the electrodes were removed and the skin washed carefully with deionized water, then dried and stripped 5 times with adhesive tape (3M Co., St. Paul, Minn., U.S.A) and the strips discarded. […] The urine passed in the 24-hour period was collected and counted for radioactivity.
In the method of the invention, the skin was first subjected to 3 hours of electric current as in conventional iontophoresis, except that chamber 101 contained the gel of example 1 without peptide. […] The rats were then left as described previously in their metabolic cages for 24 hours and urine collected and measured for radioactivity. […]

[2] = Pharmacokinetic profile: blood and urine levels after single intravenous injection; assay type: in vivo, hairless female rats
Experimental: Prior to the in vivo experiments, a study was carried out to determine whether the levels of peptide in urine were significant. To this end, following a single intravenous injection of Thr-Lys-Pro, its levels in blood and urine were measured. This was carried out by an injection of 0.5 cm^3 of an aqueous solution containing 2 nmol/cm^3 of non-radiolabelled peptide and 5 μCi/cm^3 of radiolabelled peptide via the tail vein of five hairless female rats (198±12 g). The rats had been anaesthetised by an intraperitoneal injection of pentobarbital sodium (40 mg/kg). The rats were left in metabolic cages and blood samples were taken at 10, 15, 30 minutes and 1, 2, 3 and 24 hours following the peptide injection. Blood was removed from the retro-orbital sinus of the eye socket by capillary tube. The samples were weighed into a crucible (ashless paper) and allowed to dry overnight. The blood was then oxidized using a tri-carb oxidizer (model 306 sold by Packard Instrument Co. Inc.) and measured for radioactivity. Urine was collected from the cage after 24 hours and also measured for radioactivity.

Substance: Thr-Lys-Pro
- systemic absorption of peptide (total quantity in urine) vs passive method without current [1]: greater systemic absorption of peptides than the passive method without application of current
- quantity of peptide present in urine ([2]; 24 hours after the intravenous injection, radioactivity): 63.6±8 % of the injected dose
- quantity of peptide in the blood ([2]; single intravenous injection, blood sampled 10 minutes to 24 hours): not detectable
